In article PMC5034277, “High Fructose Diet inducing diabetes rapidly impacts olfactory epithelium and behavior in mice” (Scientific Reports, 2016) one finds EC50 data, which are given here for 1 compound.

For this experiment, the target named is T1, MOR23 (Mus musculus, UniProt Q62007).
T1 construct: gene Or10j5; native full-length receptor in GFP-labelled olfactory sensory neurons of gene-targeted MOR23-IRES-tauEGFP mice, intact epithelium; untagged (IRES reporter)
T1 sequence (Q62007 1-309): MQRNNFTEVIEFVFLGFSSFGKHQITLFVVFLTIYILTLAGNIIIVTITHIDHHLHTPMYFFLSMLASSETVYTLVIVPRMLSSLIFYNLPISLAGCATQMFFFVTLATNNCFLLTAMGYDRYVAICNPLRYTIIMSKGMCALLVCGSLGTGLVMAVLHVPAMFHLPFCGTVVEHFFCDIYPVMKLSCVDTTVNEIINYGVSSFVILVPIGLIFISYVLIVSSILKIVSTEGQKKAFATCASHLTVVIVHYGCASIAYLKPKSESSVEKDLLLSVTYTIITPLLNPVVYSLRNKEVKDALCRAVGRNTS
Nature of the experiment: perforated patch-clamp of dendritic knob, peak transduction current, Hill fit. Type of experiment: cell-based. To be noted: neurons of control-diet mice; holding -67 mV; Ringer pH 7.6; pressure-delivered odorant; whole-neuron transduction read-out; read-out: K1/2. Background: Patch clamp records ionic current or voltage across a cell membrane.

Regarding `CC(C)(O)CCCC1=CCC(C=O)CC1` (stereo not shown) [Lyral], the EC50 was 3 ± 1 µM.
